Values of other authors as cited in PMC4956526 (Bioconjugate chemistry, 2016).

Conditions: ref 40 (Lau et al.)

## liraglutide
  subcutaneous bioavailability: 66%

## semaglutide
  subcutaneous bioavailability: 94%
